# Test results as given in patent publication US11807628B2, “Benzodiazepine derivatives and uses thereof” (priority 2018, dated 2023).
# Non-standard residues stand in square brackets, D forms with d. Residues, ends and D or L forms follow the SMILES beside them. Dolaproine = CO[C@@H]([C@@H]1CCCN1)[C@@H](C)C(=O)O; Dil = CC[C@H](C)[C@H](NC)[C@@H](CC(=O)O)OC; NMeV = CN[C@H](C(=O)O)C(C)C
# What was measured:
# NCI-N87 [1] = test: In vitro analysis of benzodiazepine dimer derivatives, MTT cell viability; assay type: cell-based; conditions: Homo sapiens, NCI-N87, 144 h; MTT assay, 6 days incubation
# Experimental: (§1) Example 85: In Vitro Analysis of Benzodiazepine Dimer Derivatives A-498, HCT-116, JIMT-1, MIA-PaCa-2 and HEK-293E were seeded into 24-well plates at 10×10^3 cells/1 mL medium/well. Calu-6, PC-3 and SK-OV-3 were seeded into 24-well plates at 15×10^3 cells/1 mL medium/well. NCI-N87 was seeded into 24-well plates at 25×10^3 cells/1 mL medium/well. The plates were incubated for 24 hours at 37° C. in a humidified 5% CO2-in-air atmosphere. Benzodiazepine dimer derivatives were dissolved initially in DMSO at a concentration of 10 mM. Serial dilutions were made in DMSO. The series of compound dilutions in DMSO were added to triplicate wells of 24-well plates at 5 μL per well. Three wells on each individual plate received 5 μL of DMSO without compound as controls. The final concentration of DMSO per well was 0.5%. The plates were incubated for 6 days at 37° C. in a humidified 5% CO2-in-air atmosphere. Cell viability was determined by the MTT assay and IC50 was generated using a sigmoidal dose-response nonlinear regression curve fit (GraphPad Software Inc.).
# JIMT-1 [2] = test: as above; assay type: cell-based; conditions: MTT assay, 6 days incubation
# Experimental: as §1
# A-498 = test: as above; assay type: cell-based; conditions: MTT assay, 6 days incubation
# Experimental: as §1
# Calu-6 = test: as above; assay type: cell-based; conditions: MTT assay, 6 days incubation
# Experimental: as §1
# HCT-116 = test: as above; assay type: cell-based; conditions: MTT assay, 6 days incubation
# Experimental: as §1
# HEK-293E = test: as above; assay type: cell-based; conditions: MTT assay, 6 days incubation
# Experimental: as §1
# MIA-PaCa2 = test: as above; assay type: cell-based; conditions: MTT assay, 6 days incubation
# Experimental: as §1
# PC-3 = test: as above; assay type: cell-based; conditions: MTT assay, 6 days incubation
# Experimental: as §1
# SK-OV3 [3] = test: as above; assay type: cell-based; conditions: MTT assay, 6 days incubation
# Experimental: as §1
# JIMT-1 [4] = test: Cell cytotoxicity of antibody-drug conjugate; assay type: cell-based; conditions: living cells quantified 96 hours later
# Experimental: (§2) NCI-N87, JNMT-2, SK-BR3, and SK-V3 cancer cells were seeded in 96-well plates at a density of 2,000 to 8,000 cells per well in 100 μL of medium, and cultured for 24 hours. The four compounds obtained in Example 46 were treated by serial dilutions of 1:4 from 600 nM to 0.009 nM, and the antibody drug conjugate T-DM1 was treated by serial dilutions of 1:4 from 200 nM to 0.003 nM. Experiments were performed in a similar manner to Test Example 1 to quantify living cells 96 hours later, and results are shown in Table 2 below. Further, results of in vitro analysis of compound T-2-AB, T-3-AB, T-7-AB T-8-AB, T-9-AB, T-11-AB, T-12-AB, T-13-AB, T-14-AB, T-15-AB, T-16-AB, T-17-AB, T-Int-1-AB, T-Int-2-AB, T-Int-14-AB and mT-Int-8-AB were shown in FIG. 10, FIG. 11, FIG. 12, and Table 3.
# NCI-N87 [5] = test: Cell cytotoxicity of antibody-drug conjugate; assay type: cell-based; conditions: living cells quantified 96 hours later
# Experimental: as §2
# SK-BR3 = test: Cell cytotoxicity of antibody-drug conjugate; assay type: cell-based; conditions: living cells quantified 96 hours later
# Experimental: as §2
# SK-OV3 [6] = test: Cell cytotoxicity of antibody-drug conjugate; assay type: cell-based; conditions: living cells quantified 96 hours later
# Experimental: as §2
# NCI-N87 cells = test: In vivo efficacy, tumor xenograft studies in mice; conditions: Male BALB/c nu/nu mice, tumors approximately 95 mm^3 at start, single i.v. injection day 0 (T-2-AB 0.5 or 2 mg/kg, T-DM1 2 mg/kg), 80 days observation
# Experimental: In vivo efficacy of antibody-drug conjugates of the invention was measured by tumor xenograft studies in mice. Male BALB/c nu/nu were injected subcutaneously in the right flank with suspensions of 5×10^6 of NCI-N87 cells respectively in PBS. Mice were randomized into study groups when tumors reached approximately 95 mm^3. T-DM1 (2 mg/kg) and T-2-AB conjugates (0.5 mg/kg or 2 mg/kg) were given i.v. (single injection on treatment day 0). All treatment groups consisted of 6 to 10 animals per group, and tumor size was monitored twice weekly using caliper measurement. The tumor mass was calculated as volume=(width×width×length)/2.
# T-7-AB was progressed in the same method except initial tumor size was 150 mm^3.
# [7] = Homo sapiens, MIA PaCa-2, 144 h
compound,measurement,setting,value
COc1cc2c(cc1OCCN(C)CCOc1cc3c(cc1OC)C(=O)N1Cc4ccccc4C[C@H]1C=N3)N=C[C@@H]1Cc3ccccc3CN1C2=O [Compound D-9],IC50,NCI-N87 [1],184 ± 36 pM
"COc1cc2c(cc1OCCN(CCOc1cc3c(cc1OC)C(=O)N1Cc4ccccc4C[C@H]1C=N3)c1ccncc1)N=C[C@@H]1Cc3ccccc3CN1C2=O [Compound D-6, (N-Pyridine)-TBD-Dimer]",IC50,"JIMT-1 [2]; Homo sapiens, JIMT-1, 144 h",2980 pM
same,IC50,NCI-N87 [1],4110 pM
C=C1C[C@H]2C=Nc3cc(OCc4cc(COc5cc6c(cc5OC)C(=O)N5CC(=C)C[C@H]5C=N6)cc(CN(C)C)c4)c(OC)cc3C(=O)N2C1 [Compound D-10],IC50,NCI-N87 [1],663 ± 116 pM
COc1cc2c(cc1OCCCCCOc1cc3c(cc1OC)C(=O)N1Cc4cc(O)ccc4C[C@H]1C=N3)C=N[C@@H]1Cc3ccccc3CN1C2=O [Compound D-13],IC50,NCI-N87 [1],2030 ± 1220 pM
"COc1cc2c(cc1OCc1cc(O)cc(COc3cc4c(cc3OC)C(=O)N3Cc5ccccc5C[C@H]3C=N4)c1)N=C[C@@H]1Cc3ccccc3CN1C2=O [Compound D-3, (Phenol)-TBD-Dimer]",IC50,"A-498; Homo sapiens, A498, 144 h",139 pM
same,IC50,"Calu-6; Homo sapiens, Calu-6, 144 h",6.2 pM
same,IC50,"HCT-116; Homo sapiens, HCT-116, 144 h",0.0137 ± 0.0086 nM
same,IC50,"HEK-293E; HEK293E, 144 h",0.0114 ± 0.0026 nM
same,IC50,"JIMT-1 [2]; Homo sapiens, JIMT-1, 144 h",31 ± 15 pM
same,IC50,MIA-PaCa2; [7],0.0106 ± 0.0046 nM
same,IC50,NCI-N87 [1],32.2 ± 21.3 pM
same,IC50,"PC-3; Homo sapiens, PC-3, 144 h",0.0326 ± 0.0103 nM
same,IC50,"SK-OV3 [3]; Homo sapiens, SK-OV-3, 144 h",0.0596 ± 0.0182 nM
COc1cc2c(cc1OCc1cc(COc3cc4c(cc3OC)C(=O)N3Cc5cc(O)ccc5C[C@H]3C=N4)cc(CN(C)C)c1)N=C[C@@H]1Cc3ccccc3CN1C2=O [Compound D-12],IC50,NCI-N87 [1],2030 pM
"COc1cc2c(cc1OCc1cccc(COc3cc4c(cc3OC)C(=O)N3Cc5ccccc5C[C@H]3C=N4)c1)N=C[C@@H]1Cc3ccccc3CN1C2=O [Ref-1, reference compound]",IC50,"JIMT-1 [2]; Homo sapiens, JIMT-1, 144 h",5.4 ± 1.6 pM
same,IC50,NCI-N87 [1],3.5 ± 2.8 pM
"COc1cc2c(cc1OCc1cc(COc3cc4c(cc3OC)C(=O)N3Cc5ccccc5C[C@H]3C=N4)cc(CN(C)C)c1)N=C[C@@H]1Cc3ccccc3CN1C2=O [Compound D-5, (N,N-dimethylbenzyl)-TBD-Dimer]",IC50,"A-498; Homo sapiens, A498, 144 h",2.9 pM
same,IC50,"Calu-6; Homo sapiens, Calu-6, 144 h",1.4 pM
same,IC50,"HCT-116; Homo sapiens, HCT-116, 144 h",0.0014 ± 0.0006 nM
same,IC50,"HEK-293E; HEK293E, 144 h",0.0022 ± 0.0011 nM
same,IC50,"JIMT-1 [2]; Homo sapiens, JIMT-1, 144 h",1.7 ± 0.5 pM
same,IC50,MIA-PaCa2; [7],0.0019 ± 0.0016 nM
same,IC50,"PC-3; Homo sapiens, PC-3, 144 h",0.0044 ± 0.0021 nM
same,IC50,"SK-OV3 [3]; Homo sapiens, SK-OV-3, 144 h",0.0109 ± 0.0027 nM
"COc1cc2c(cc1OCc1cc(COc3cc4c(cc3OC)C(=O)N3c5ccccc5C[C@H]3C=N4)cc(CN(C)C)c1)N=C[C@@H]1Cc3ccccc3N1C2=O [Compound D-8, (N,N-dimethylbenzyl)-IBD-Dimer]",IC50,NCI-N87 [1],62 ± 2 pM
"CC[C@H](C)[C@@H]([C@@H](CC(=O)N1CCC[C@H]1[C@H](OC)[C@@H](C)C(=O)N[C@@H](Cc1ccccc1)C(=O)OC)OC)N(C)C(=O)[C@@H](NC(=O)[C@@H](NC)C(C)C)C(C)C [MMAF-OMe, reference compound] (H-[NMeV]V[Dil][Dolaproine]F-OMe)",IC50,A-498,233 pM
same,IC50,Calu-6,162 pM
same,IC50,HCT-116,0.392 nM
same,IC50,HEK-293E,0.97 nM
same,IC50,JIMT-1 [2],161 pM
same,IC50,MIA-PaCa2,0.852 nM
same,IC50,PC-3,0.212 nM
same,IC50,SK-OV3 [3],0.244 nM
"COc1cc2c(cc1OCc1cc(O)cc(COc3cc4c(cc3OC)C(=O)N3c5ccccc5C[C@H]3C=N4)c1)N=C[C@@H]1Cc3ccccc3N1C2=O [Compound D-7, (Phenol)-IBD-Dimer]",IC50,NCI-N87 [1],118 ± 9 pM
"COc1cc2c(cc1OCc1cncc(COc3cc4c(cc3OC)C(=O)N3Cc5ccccc5C[C@H]3C=N4)c1)N=C[C@@H]1Cc3ccccc3CN1C2=O [Compound D-4, (Pyridine)-TBD-Dimer]",IC50,"JIMT-1 [2]; Homo sapiens, JIMT-1, 144 h",1.7 ± 0.6 pM
same,IC50,NCI-N87 [1],3.8 ± 2.4 pM
"C=C1C[C@H]2C=Nc3cc(OCc4cc(O)cc(COc5cc6c(cc5OC)C(=O)N5CC(=C)C[C@H]5C=N6)c4)c(OC)cc3C(=O)N2C1 [Compound D-1, (Phenol)-PBD-Dimer]",IC50,"A-498; Homo sapiens, A498, 144 h",414 pM
same,IC50,"Calu-6; Homo sapiens, Calu-6, 144 h",89 pM
same,IC50,"HCT-116; Homo sapiens, HCT-116, 144 h",0.109 nM
same,IC50,"HEK-293E; HEK293E, 144 h",0.216 nM
same,IC50,"JIMT-1 [2]; Homo sapiens, JIMT-1, 144 h",102 pM
same,IC50,MIA-PaCa2; [7],0.105 nM
same,IC50,NCI-N87 [1],191 pM
same,IC50,"PC-3; Homo sapiens, PC-3, 144 h",0.126 nM
same,IC50,"SK-OV3 [3]; Homo sapiens, SK-OV-3, 144 h",0.175 nM
COc1cc2c(cc1OCc1cc(O)cc(COc3cc4c(cc3OC)C(=O)N3C=C(c5ccccc5)C[C@H]3C=N4)c1)N=C[C@@H]1CC(c3ccccc3)=CN1C2=O [Compound D-11],IC50,NCI-N87 [1],173 ± 34 pM
"C=C1C[C@H]2C=Nc3cc(OCc4cncc(COc5cc6c(cc5OC)C(=O)N5CC(=C)C[C@H]5C=N6)c4)c(OC)cc3C(=O)N2C1 [Compound D-2, (Pyridine)-PBD-Dimer]",IC50,"A-498; Homo sapiens, A498, 144 h",64 pM
same,IC50,"Calu-6; Homo sapiens, Calu-6, 144 h",29 pM
same,IC50,"HCT-116; Homo sapiens, HCT-116, 144 h",0.036 nM
same,IC50,"HEK-293E; HEK293E, 144 h",0.079 nM
same,IC50,"JIMT-1 [2]; Homo sapiens, JIMT-1, 144 h",34 pM
same,IC50,MIA-PaCa2; [7],0.044 nM
same,IC50,NCI-N87 [1],104 pM
same,IC50,"PC-3; Homo sapiens, PC-3, 144 h",0.049 nM
same,IC50,"SK-OV3 [3]; Homo sapiens, SK-OV-3, 144 h",0.074 nM
T-DM1,IC50,JIMT-1 [4],3.15 ± 1.76 nM
same,IC50,NCI-N87 [5],0.234 ± 0.096 nM
same,IC50,SK-BR3,0.037 ± 0.012 nM
same,IC50,SK-OV3 [6],0.109 ± 0.004 nM
same,Tumor size in NCI-N87 xenograft,NCI-N87 cells,less active than the conjugates of the invention
